A word on the Emax: it is the size of the effect at its maximum, as opposed to the concentration needed. For orientation: EC50 means the midpoint of the concentration-response curve. For orientation: IC50 means the concentration at which inhibition is half-maximal.

This is an account of results in ChEMBL document CHEMBL4342461, “Schwarzinicines A-G, 1,4-Diarylbutanoid-Phenethylamine Conjugates from the Leaves of Ficus schwarzii” (J Nat Prod, 2020).

The test system of test [1] is Aorta. In words: Vasorelaxant activity in Sprague-Dawley rat aortic rings assessed as reduction in phenylephrine-induced contractions by measuring maximum relaxation magnitude relative to control. Type of test: functional.
The test system of test [2] is Aorta. In words: Vasorelaxant activity in Sprague-Dawley rat aortic rings assessed as reduction in phenylephrine-induced contractions. Type of test: functional, tissue-based.
In another test the test system is MCF7. Put plainly: Cytotoxicity against human MCF7 cells after 72 hrs by neutral red uptake assay. The settings on record: MCF7, 72 h. The format is cell-based.
The test system of a further test is A549. In words: Cytotoxicity against human A549 cells after 72 hrs by neutral red uptake assay. Type of test: cell-based. The settings on record: A549, 72 h.
The next test relates to HCT-116. In words: Cytotoxicity against human HCT116 cells after 72 hrs by neutral red uptake assay. The format is cell-based. The conditions noted are these: HCT-116, 72 h.

Take `COc1ccc(CCC(Cc2ccc(OC)c(OC)c2)NCCc2ccc3c(c2)OCO3)cc1OC` (stereo not drawn): in the test on Aorta [1], the Emax was 120%. Moreover, in the test with Aorta [2], the Activity result was “Dose-dependent effect” and the EC50 worked out at 1.88 µM.
Take `COc1ccc(CCNC(CCc2ccc(OC)c(OC)c2)Cc2ccc(OC)c(OC)c2)cc1OC` (stereo not drawn): the Emax with Aorta [1] amounted to 119%. Also, the Activity result in the test on Aorta [2] was “Dose-dependent effect”. For the same molecule, the EC50 in the test with Aorta [2] came out at 2.01 µM. For the same molecule, the half-maximal inhibitory concentration (IC50) with MCF7, in the test with A549 and in the test on HCT-116 was more than 10 µM in each case.
Consider `CC(CCc1ccc(O)cc1)NCCc1ccc(O)c(O)c1` (stereo not drawn) [DOBUTAMINE], for which the Emax in the test on Aorta [1] amounted to 92%. Moreover, the EC50 with Aorta [2] is 2.5 µM.
Consider `CC[C@]1(O)C[C@@H]2CN(CCc3c([nH]c4ccccc34)[C@@](C(=O)OC)(c3cc4c(cc3OC)N(C)[C@H]3[C@@](O)(C(=O)OC)[C@H](OC(C)=O)[C@]5(CC)C=CCN6CC[C@]43[C@@H]65)C2)C1` [VINBLASTINE], for which the IC50 with MCF7 stood at 0.001 µM; in the test with A549 it was 0.01 µM; with HCT-116 it was 0.0005 µM.
As for `COc1ccc(CCC(Cc2ccc(OC)c(OC)c2)NCCc2cc(OC)c3c(c2)OCO3)cc1OC` (stereo not drawn), in the test on Aorta [1], the Emax came to 116%. For the same molecule, in the test on Aorta [2], the Activity result is “Dose-dependent effect” and the EC50 is 2.1 µM.
For `COc1ccc(CCC(Cc2ccc(OC)c(OC)c2)N(C)CCc2ccc(OC)c(OC)c2)cc1OC` (stereo not drawn), the Emax in the test with Aorta [1] turned out to be 106%. Besides, the Activity entry in the test on Aorta [2] was “Dose-dependent effect”. Moreover, the EC50 with Aorta [2] turned out to be 0.96 µM. Besides, the IC50 with MCF7, in the test on A549 and with HCT-116 was more than 10 µM each time.
